Results as given in publication PMC9230671, “Fluorochrome Selection for Imaging Intraoperative Ovarian Cancer Probes” (Pharmaceuticals, 2022).
Structures can show the parent of a compound that is named as a salt. Marks after values point to notes of the source that are not given here.

Columns and labels:
[1] = biological target: T1, COX-2 (Homo sapiens, UniProt P35354); experiment: COX-2 inhibition, COX (ovine/human) inhibitor screening assay kit; format: biochemical; settings: for COX-2 inhibitory activity (in words): up to 50 µM final concentration
T1 construct: purchased Cayman Chemicals (bought through Sigma-Aldrich) 560131
T1 sequence (P35354 18-604): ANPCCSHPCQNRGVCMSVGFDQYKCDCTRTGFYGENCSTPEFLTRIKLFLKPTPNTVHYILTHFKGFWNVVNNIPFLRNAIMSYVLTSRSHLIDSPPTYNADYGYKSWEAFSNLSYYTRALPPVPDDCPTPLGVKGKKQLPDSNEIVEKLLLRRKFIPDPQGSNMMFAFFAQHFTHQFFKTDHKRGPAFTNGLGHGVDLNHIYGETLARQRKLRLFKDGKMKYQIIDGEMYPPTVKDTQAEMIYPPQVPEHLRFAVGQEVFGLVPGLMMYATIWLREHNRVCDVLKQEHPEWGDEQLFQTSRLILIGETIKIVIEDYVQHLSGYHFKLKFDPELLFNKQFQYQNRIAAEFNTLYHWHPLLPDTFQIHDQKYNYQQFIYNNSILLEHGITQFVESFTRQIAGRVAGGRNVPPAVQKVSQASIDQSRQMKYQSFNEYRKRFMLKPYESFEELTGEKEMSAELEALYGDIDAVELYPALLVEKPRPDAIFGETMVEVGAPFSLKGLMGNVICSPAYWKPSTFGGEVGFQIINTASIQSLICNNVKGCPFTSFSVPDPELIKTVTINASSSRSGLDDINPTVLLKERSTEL
Method: (§1) Cell culture reagents were purchased from Euroclone (Milan, Italy). COX (ovine/human) inhibitor screening assay kit (Catalog No. 560131, Cayman Chemicals, Ann Arbor, MI, USA) was purchased from Sigma-Aldrich, Burlington, MA, USA. […] The other reagents were purchased from Sigma-Aldrich, Burlington, MA, USA.
(§2) The COX-1/2 inhibition screening experiments were carried out according to the manufacturer’s instructions. The plate was incubated for 60 min at r.t. under shaking and read with the Tecan Infinite 200 Microplate Reader at λ = 405 nm.
(§3) The graph between percent inhibition of the enzyme and corresponding concentration of the compound provided IC50 values for the probe compounds.

[2] = Fluorescence property measurements (absorption/emission spectra); format: physicochemical; parameters: Stokes Shift: unit not given here
Method: The λabs and λem, of the target compounds were measured in aqueous solution (phosphate-buffered saline solution, PBS) at the concentration of 10^−5 M (Table 1).
Fluorescence spectra of all target compounds were determined in PBS and EtOH solutions (Table 1) with a Tecan Infinite 200 Microplate Reader. In all experiments, the excitation and the emission bandpass were set at λ = 5 nm. The emission spectra were obtained from λ = 280 to 850 nm, with excitation set at the appropriate excitation wavelength. Absorption spectra were recorded with a Shimadzu UV-1800 spectrophotometer.

[3] = biological target: T2, COX-1 (Ovis aries, UniProt P05979); experiment: COX-1 inhibition, COX (ovine/human) inhibitor screening assay kit; format: biochemical; settings: for inhibition at 50 µM: at 50 µM compound final concentration, read-out: COX-1 % inhib.
T2 construct: purchased Cayman Chemicals (bought through Sigma-Aldrich) 560131
T2 sequence (P05979 25-600): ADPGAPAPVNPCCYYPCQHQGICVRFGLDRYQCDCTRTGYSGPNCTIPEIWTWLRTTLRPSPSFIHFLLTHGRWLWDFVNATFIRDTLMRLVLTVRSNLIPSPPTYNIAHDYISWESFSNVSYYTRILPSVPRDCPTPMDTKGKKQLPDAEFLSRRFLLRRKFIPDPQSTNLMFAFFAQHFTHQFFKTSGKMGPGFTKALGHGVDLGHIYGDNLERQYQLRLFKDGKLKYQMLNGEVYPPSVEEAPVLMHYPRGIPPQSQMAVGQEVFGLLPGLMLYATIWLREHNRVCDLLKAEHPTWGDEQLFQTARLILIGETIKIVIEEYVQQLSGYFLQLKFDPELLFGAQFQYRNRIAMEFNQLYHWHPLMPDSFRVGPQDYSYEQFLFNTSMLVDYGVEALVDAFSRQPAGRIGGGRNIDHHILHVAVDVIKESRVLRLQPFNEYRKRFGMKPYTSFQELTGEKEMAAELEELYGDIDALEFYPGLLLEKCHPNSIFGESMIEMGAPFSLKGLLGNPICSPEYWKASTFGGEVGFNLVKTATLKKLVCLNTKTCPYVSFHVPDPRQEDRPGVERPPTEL
Method: as §1, §2, §3

[4] = Solubility in PBS (remark); format: physicochemical
Source text: Despite of the solvent, the Stokes shift was very low with this fluorophore.

| Structure (SMILES) | melting point | IC50 [1] | Stokes Shift ([2]; PBS solution, 10^−5 M) | λabs ([2]; PBS solution, 10^−5 M) | λem ([2]; PBS solution, 10^−5 M) | IC50 [3] | SI (selectivity index) [3] | inhibition at 50 µM [3] | COX-2 inhibitory activity (in words) [1] | COX-1 inhibitory activity (in words) [3] | solubility in PBS [4] | Stokes Shift ([2]; ethanol (10^−5 M)) | λabs ([2]; ethanol (10^−5 M)) | λem ([2]; ethanol (10^−5 M)) |
| --- | --- | --- | --- | --- | --- | --- | --- | --- | --- | --- | --- | --- | --- | --- |
| COc1ccc(-c2noc(CC(=O)Nc3ccc(NC(=O)CCCCCCCCCCNS(=O)(=O)c4cccc5c(N(C)C)cccc45)cc3)c2-c2ccc(OC)cc2)cc1 [Compound 9] | 140 to 143 °C | > 50 µM | 222 | 274 nm | 496 nm | 0.7 µM | > 71 | 83% | – | – | – | – | – | – |
| CCCN1C(=O)c2cccc3c(NCCCCCCNC(=O)Cc4onc(-c5ccc(OC)cc5)c4-c4ccc(OC)cc4)ccc(c23)C1=O [Compound 17a, 2-(3,4-Bis(4-methoxyphenyl)isoxazol-5-yl)-N-(6-((1,3-dioxo-2-propyl-2,3-dihydro-1H-benzo[de]isoquinolin-6-yl)amino)hexyl)acetamide] | 110 to 111 °C | > 50 µM | 96 | 450 nm | 546 nm | 0.08 µM | > 625 | 51% | almost inactive | – | – | – | – | – |
| COc1ccc(-c2noc(CC(=O)NCCCCCCNS(=O)(=O)c3cccc4c(N(C)C)cccc34)c2-c2ccc(OC)cc2)cc1 [Compound 6a] | 66 to 69 °C | > 50 µM | – | – | – | 12 µM | > 4 | 74% | – | – | – | 273 | 248 ^b nm | 521 ^b nm |
| COc1ccc(-c2noc(CC(=O)Nc3ccc(NS(=O)(=O)c4cccc5c(N(C)C)cccc45)cc3)c2-c2ccc(OC)cc2)cc1 [Compound 3b, 2-[3,4-Bis(4-methoxyphenyl)isoxazol-5-yl]-N-{4-[(5-dimethylaminonaphthalene)-1-sulfonamido]phenyl}acetamide] | 120 to 122 °C | > 50 µM | 154 | 360 nm | 514 nm | 0.05 µM | > 1000 | 44% | – | – | – | – | – | – |
| COc1ccc(-c2noc(CC(=O)NCCCCCCNc3ccc([N+](=O)[O-])c4nonc34)c2-c2ccc(OC)cc2)cc1 [Compound 13b, 2-(3,4-Bis(4-methoxyphenyl)isoxazol-5-yl)-N-(6-((7-nitrobenzo[c][1,2,5]oxadiazol-4-yl)amino)hexyl)acetamide] | – | > 50 µM | 64 | 490 nm | 554 nm | > 50 µM | – | 26% | – | – | – | – | – | – |
| CCN1/C(=C/C=C/C=C/C=C/C2=[N+](CCCCCC(=O)NCCCCNC(=O)Cc3onc(-c4ccc(OC)cc4)c3-c3ccc(OC)cc3)c3ccc4ccccc4c3C2(C)C)C(C)(C)c2c1ccc1ccccc21 (as salt: chloride) [23 (MSA14), 3-(6-(4-(2-(3,4-Bis(4-methoxyphenyl)isoxazole-5-yl)acetamido)butyl)amino-6-oxohexyl)-2-[7-(1,3-dihydro-1,1-dimethyl-3-ethyl-2H-benz[e]indolin-2-yl-idene)-1,3,5-heptatrienyl]-1,1-dimethyl-3-(6-carboxilato-hexyl)-1H-benz[e]indolium chloride] | 220 °C (dec.) | – | – | – | – | – | – | – | – | – | – | – | – | – |

Other lines, results leading:

| melting point | IC50 [1] | Stokes Shift ([2]; PBS solution, 10^−5 M) | λabs ([2]; PBS solution, 10^−5 M) | λem ([2]; PBS solution, 10^−5 M) | IC50 [3] | SI (selectivity index) [3] | inhibition at 50 µM [3] | COX-2 inhibitory activity (in words) [1] | COX-1 inhibitory activity (in words) [3] | solubility in PBS [4] | Stokes Shift ([2]; ethanol (10^−5 M)) | λabs ([2]; ethanol (10^−5 M)) | λem ([2]; ethanol (10^−5 M)) | Structure (SMILES) |
| --- | --- | --- | --- | --- | --- | --- | --- | --- | --- | --- | --- | --- | --- | --- |
| 126 to 129 °C | > 50 µM | 222 | 270 nm | 492 nm | 0.1 µM | > 500 | 71% | – | – | – | – | – | – | COc1ccc(-c2noc(CC(=O)NCCCCCCCCCCCCNS(=O)(=O)c3cccc4c(N(C)C)cccc34)c2-c2ccc(OC)cc2)cc1 [Compound 6b, 2-[3,4-Bis(4-methoxyphenyl)-5-yl]-N-{4-[(5-dimethylaminonaphthalene)-1-sulfonamido]dodecyl}acetamide] |
| 69 to 71 °C | > 50 µM | 264 | 230 nm | 494 nm | > 50 µM | – | 45% | almost inactive | almost inactive | – | – | – | – | COc1ccc(-c2noc(CC(=O)NCCCCNS(=O)(=O)c3cccc4c(N(C)C)cccc34)c2-c2ccc(OC)cc2)cc1 [Compound 3a, 2-[3,4-Bis(4-methoxyphenyl)isoxazol-5-yl]-N-{4-[(5-dimethylaminonaphthalene)-1-sulfonamido]butyl}acetamide] |
| – | > 50 µM | 55 | 495 nm | 550 nm | > 50 µM | – | 28% | – | – | – | – | – | – | COc1ccc(-c2noc(CC(=O)NCCCCCCCCCCCCNc3ccc([N+](=O)[O-])c4nonc34)c2-c2ccc(OC)cc2)cc1 [Compound 13c, 2-(3,4-Bis(4-methoxyphenyl)isoxazol-5-yl)-N-(12-((7-nitrobenzo[c][1,2,5]oxadiazol-4-yl)amino)dodecyl)acetamide] |
| 240 to 241 °C | > 50 µM | 217 | 287 nm | 504 nm | 0.06 µM | > 833 | 71% | – | – | – | – | – | – | COc1ccc(-c2noc(CC(=O)Nc3ccc(-c4ccc(NS(=O)(=O)c5cccc6c(N(C)C)cccc56)cc4)cc3)c2-c2ccc(OC)cc2)cc1 [Compound 3c, 2-[3,4-Bis(4-methoxyphenyl)isoxazol-5-yl]-N-{4-[(5-dimethylaminonaphthalene)-1-sulfonamido]biphenyl}acetamide] |
| 112 to 115 °C | > 50 µM | – | – | – | 0.15 µM | > 333 | 49% | almost inactive | – | low solubility | 92 | 450 ^b nm | 542 ^b nm | CCCN1C(=O)c2cccc3c(Nc4ccc(NC(=O)Cc5onc(-c6ccc(OC)cc6)c5-c5ccc(OC)cc5)cc4)ccc(c23)C1=O [Compound 17b, 2-(3,4-Bis(4-methoxyphenyl)isoxazol-5-yl)-N-(4-((1,3-dioxo-2-propyl-2,3-dihydro-1H-benzo[de]isoquinolin-6-yl)amino)phenyl)acetamide] |
| 165 °C (dec.) | > 50 µM | 82 | 482 nm | 564 nm | > 50 µM | – | 0% | – | – | – | – | – | – | COc1ccc(-c2noc(CC(=O)NCCCCNc3ccc([N+](=O)[O-])c4nonc34)c2-c2ccc(OC)cc2)cc1 [Compound 13a, 2-(3,4-Bis(4-methoxyphenyl)isoxazol-5-yl)-N-(4-((7-nitrobenzo[c][1,2,5]oxadiazol-4-yl)amino)butyl)acetamide] |
